Source: patent publication US20240383911A1, “AZAINDAZOLE MACROCYCLE COMPOUNDS AND USES THEREOF” (BROADENBIO CO., LTD, priority 2021, published 2024)

How the values were obtained:
Human Jurkat-E6-1 cells = assay: Detection of IL-2 production by Jurkat cells using ELISA; assay type: cell-based; settings: anti-CD3/anti-CD28 stimulation 24 hours, read-out: Percentage of the amount of IL-2 secreted by compound treated vs DMSO-treated cells; for activity at 1 µM: tested compound 1.0 μM; for activity at 0.33 µM: tested compound 0.33 μM
Description: (§1) Tested compounds: compounds prepared in the Examples of this invention.
Human Jurkat-E6-1 cells were incubated with various concentrations of tested compounds for 30 minutes in a humidified incubator at 37° C. and 5% CO2. Cells were transferred to cell culture plates pre-coated with anti-human CD3 antibody, then soluble anti-human CD28 antibody was added, and cells were stimulated for 24 hours at 37° C. and 5% CO2 in a humidified incubator. The cell culture medium was collected after centrifugation, and was then transferred to a 96-well transparent microtiter plate (Thermo) pre-coated with anti-human IL-2 antibody, incubated at room temperature for 2 hours with gently shaking, washed with washing buffer for 4 times, and then followed the ELISA MAX Deluxe Set Human IL-2 (BioLegend) kit procedures, used a microplate reader (Molecular Device, i3X) to read the GD value at 450 nm. The best standard curve was selected by the microplate reader application software, and the corresponding concentration was calculated according to the GD value of the standard. Results are expressed as a percentage (%) of the amount of IL-2 secreted by compound-treated vs DMSO-treated cells.

HPK1 = HPK1 (Homo sapiens, UniProt Q92918); assay: HPK1 kinase activity inhibition test (ADP-Glo, luminescence); assay type: biochemical; settings: 2 μM ATP, 5 nM HPK1, read-out: IC50, inhibitory effects on HPK1 kinase activity
Description: The kinase activity of HPK1 is manifested as activity of autophosphorylation and phosphorylation of downstream substrates. In the process of autophosphorylation, additional substrates are not required, and ATP is consumed to generate ADP. The amount of the product is measured by ADP-Glo reagent and luminescence method to reflect kinase activity.
as §1
Preparation of compound stock solution: dissolve the test compound in 100% DMSO to make a 10 mM stock solution;
Preparation of 4×Kinase Reaction Buffer:
Preparation of 2×HPK1 Kinase Solution:
Preparation of 4×ATP Mixture:
Dilute the stock solution of the test compound by 5 times with 100% DMSO, make a 4-fold equal dilution in a 96-well dilution plate, add 1 μL of the compound to 49 μL of kinase reaction buffer, and shake on a microplate shaker for 20 minutes. Transfer 2 μL of 2×HPK1 kinase solution to 384 reaction plate, add 1 μL of the test compound to the 384 reaction plate (Greiner, Cat #784075), centrifuge for 1 minute (1000 rpm/min), incubate at 25° C. for 10 minutes. Transfer 1 μL of the 4×ATP mixture to a 384 reaction plate, centrifuge for 1 minute (1000 rpm/min), and incubate at 25° C. for 60 minutes. In the reaction system, the final concentration of DMSO is 0.5%. Transfer 4 μL of ADP-Glo to a 384 reaction plate, centrifuge for 1 minute (1000 rpm/min), and incubate at 25° C. for 40 minutes. Transfer 8 μL detection solution to a 384 reaction plate, centrifuge for 1 minute (1000 rpm/min), and incubate at 25° C. for 40 minutes. The […] is read using a Biotek multi-function plate reader, and the IC50 (half inhibitory concentration) of the compound is obtained using a four-coefficient nonlinear fitting formula.

Chain of HPK1 (Q92918 whole entry): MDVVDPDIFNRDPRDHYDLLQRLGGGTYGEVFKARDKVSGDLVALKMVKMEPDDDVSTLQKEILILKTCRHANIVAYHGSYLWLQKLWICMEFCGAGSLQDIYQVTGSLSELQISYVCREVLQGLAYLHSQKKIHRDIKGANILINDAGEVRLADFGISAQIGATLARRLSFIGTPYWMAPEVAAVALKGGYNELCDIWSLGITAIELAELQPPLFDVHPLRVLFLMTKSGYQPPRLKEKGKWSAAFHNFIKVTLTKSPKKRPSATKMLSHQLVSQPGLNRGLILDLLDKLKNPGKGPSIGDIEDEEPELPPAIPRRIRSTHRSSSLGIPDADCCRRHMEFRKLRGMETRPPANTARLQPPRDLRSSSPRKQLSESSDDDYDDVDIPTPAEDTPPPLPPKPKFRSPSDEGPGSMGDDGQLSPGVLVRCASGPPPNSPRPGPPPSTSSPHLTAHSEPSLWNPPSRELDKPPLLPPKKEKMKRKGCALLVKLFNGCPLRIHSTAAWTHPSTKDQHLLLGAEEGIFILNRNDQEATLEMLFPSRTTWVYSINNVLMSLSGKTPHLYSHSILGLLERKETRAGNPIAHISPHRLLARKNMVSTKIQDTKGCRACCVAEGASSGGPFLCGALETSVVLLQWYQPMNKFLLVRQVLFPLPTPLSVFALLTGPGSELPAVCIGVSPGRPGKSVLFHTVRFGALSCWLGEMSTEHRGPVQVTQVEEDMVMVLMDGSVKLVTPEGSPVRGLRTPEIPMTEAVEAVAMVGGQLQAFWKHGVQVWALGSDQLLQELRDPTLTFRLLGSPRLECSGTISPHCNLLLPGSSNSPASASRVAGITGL

IC50 (HPK1) [nM]	Structure (SMILES)	activity at 1 µM (Human Jurkat-E6-1 cells) [%]	activity at 0.33 µM (Human Jurkat-E6-1 cells) [%]
≤ 5	CN1C[C@H]2C[C@@H]1CN2c1ccc2cc1OCCCOc1cccc(F)c1-c1cc3c-2n[nH]c3cn1 [Compound 141, 16-fluoro-5-[(1R,4R)-5-methyl-2,5-diazabicyclo[2.2.1]heptan-2-yl]-7,11-dioxa-19,22,23-triazapentacyclo[16.5.2.1^2,6.0^12,17.0^21,24]hexacosa-1(23),2,4,6(26),12(17),13,15,18,20,24-decaene]	–	–
≤ 5	CN1C[C@H]2C[C@@H]1CN2c1ccc2cc1OCCCOCc1cccc(F)c1-c1cc3c-2n[nH]c3cn1 [Compound 152, 17-fluoro-5-[(1R,4R)-5-methyl-2,5-diazabicyclo[2.2.1]heptan-2-yl]-7,11-dioxa-20,23,24-triazapentacyclo[17.5.2.1^2,6.0^13,18.0^22,25]heptacosa-1(24),2,4,6(27),13(18),14,16,19,21,25-decaene]	–	432
≤ 5	CN1CCN(c2ccc3cc2OCCCOc2cccc(F)c2-c2cc4c-3n[nH]c4cn2)C[C@H]1CO [Compound 131, [(2S)-4-{16-fluoro-7,11-dioxa-19,22,23-triazapentacyclo[16.5.2.1^2,6.0^12,17.0^21,24]hexacosa-1(23),2,4,6(26),12(17),13,15,18,20,24-decaen-5-yl}-1-methylpiperazin-2-yl]methanol]	–	–
≤ 5	CN1CCN(c2ccc3cc2OCCCOc2cccc(F)c2-c2cc4c-3n[nH]c4cn2)C[C@@H]1CO [Compound 130, [(2R)-4-{16-fluoro-7,11-dioxa-19,22,23-triazapentacyclo[16.5.2.1^2,6.0^12,17.0^21,24]hexacosa-1(23),2,4,6(26),12(17),13,15,18,20,24-decaen-5-yl}-1-methylpiperazin-2-yl]methanol]	–	–
≤ 5	CN1C[C@@H]2C[C@H]1CN2c1ccc2cc1OCCCOc1cccc(F)c1-c1cc3c-2n[nH]c3cn1 [Compound 140, 16-fluoro-5-[(1S,4S)-5-methyl-2,5-diazabicyclo[2.2.1]heptan-2-yl]-7,11-dioxa-19,22,23-triazapentacyclo[16.5.2.1^2,6.0^12,17.0^21,24]hexacosa-1(23),2,4,6(26),12(17),13,15,18,20,24-decaene]	–	–
5 to 50	Fc1cccc2c1-c1cc3c(n[nH]c3cn1)-c1ccc(N3C[C@@H]4C[C@H]3CN4C3COC3)c(c1)OCCCO2 [Compound 142, 16-fluoro-5-[(1S,4S)-5-(oxetan-3-yl)-2,5-diazabicyclo[2.2.1]heptan-2-yl]-7,11-dioxa-19,22,23-triazapentacyclo[16.5.2.1^2,6.0^12,17.0^21,24]hexacosa-1(23),2,4,6(26),12(17),13,15,18,20,24-decaene]	–	–

Continued, compound first:

Structure (SMILES)	IC50 (HPK1) [nM]	activity at 1 µM (Human Jurkat-E6-1 cells) [%]	activity at 0.33 µM (Human Jurkat-E6-1 cells) [%]
OC1CCN(C2CCN(c3ccc4cc3OCCCOCc3cccc(F)c3-c3cc5c-4n[nH]c5cn3)CC2)CC1 [Compound 112, 1′-{17-fluoro-7,11-dioxa-20,23,24-triazapentacyclo[17.5.2.1^2,6.0^13,18.0^22,25]heptacosa-1(24),2,4,6(27),13(18),14,16,19,21,25-decaen-5-yl}-[1,4'-bipiperidin]-4-ol]	≤ 5	245	–
OC1CCN(c2ccc3cc2OCCCOc2cccc(F)c2-c2cc4c-3n[nH]c4cn2)CC1 [Compound 106, 16-fluoro-5-(4-hydroxypiperidin-1-yl)-7,11-dioxa-19,22,23-triazapentacyclo[16.5.2.1^2,6.0^12,17.0^21,24]hexacosa-1(23),2,4,6(26),12(17),13,15,18,20,24-decaene]	5 to 50	504	–
O=C1OC[C@H]2CN(c3ccc4cc3OCCCOCc3cccc(F)c3-c3cc5c-4n[nH]c5cn3)CCN12 [Compound 123, (8aR)-7-{17-fluoro-7,11-dioxa-20,23,24-triazapentacyclo[17.5.2.1^2,6.0^13,18.0^22,25]heptacosa-1(24),2,4,6(27),13(18),14,16,19,21,25-decaen-5-yl}-hexahydro-1H-[1,3]oxazolo[3,4-a]pyrazin-3-one]	≤ 5	440	–
CN1C2CC1CN(c1ccc3cc1OCCCOc1cccc(F)c1-c1cc4c-3n[nH]c4cn1)C2 [Compound 117, 16-fluoro-5-{6-methyl-3,6-diazabicyclo[3.1.1]heptan-3-yl}-7,11-dioxa-19,22,23-triazapentacyclo[16.5.2.1^2,6.0^12,17.0^21,24]hexacosa-1(23),2,4,6(26),12(17),13,15,18,20,24-decaene]	≤ 5	525	–
Fc1cccc2c1-c1cc3c(n[nH]c3cn1)-c1ccc(N3CCC(N4CCOCC4)CC3)c(c1)OCCCO2 [Compound 104, 16-fluoro-5-[4-(morpholin-4-yl)piperidin-1-yl]-7,11-dioxa-19,22,23-triazapentacyclo[16.5.2.1^2,6.0^12,17.0^21,24]hexacosa-1(23),2,4,6(26),12(17),13,15,18,20,24-decaene]	≤ 5	–	273
CN1CCN(c2ccc3cc2OCCCCCc2cccc(F)c2-c2cc4c-3n[nH]c4cn2)CC1 [Compound 101, 17-fluoro-5-(4-methylpiperazin-1-yl)-7-oxa-20,23,24-triazapentacyclo[17.5.2.1^2,6.0^13,18.0^22,25]heptacosa-1(24),2(27),3,5,13(18),14,16,19,21,25-decaene]	≤ 5	–	257
CN1CCN(C2CCN(c3ccc4cc3OCCCOCc3cccc(F)c3-c3cc5c-4n[nH]c5cn3)CC2)CC1 [Compound 109, 17-fluoro-5-[4-(4-methylpiperazin-1-yl)piperidin-1-yl]-7,11-dioxa-20,23,24-triazapentacyclo[17.5.2.1^2,6.0^13,18.0^22,25]heptacosa-1(24),2,4,6(27),13(18),14,16,19,21,25-decaene]	≤ 5	264	–
CN1CCN(c2ccc3cc2OCCCOc2cccc(F)c2-c2cc4c-3n[nH]c4cn2)CC1(C)C [Compound 143, 16-fluoro-5-(3,3,4-trimethylpiperazin-1-yl)-7,11-dioxa-19,22,23-triazapentacyclo[16.5.2.1^2,6.0^12,17.0^21,24]hexacosa-1(23),2,4,6(26),12(17),13,15,18,20,24-decaene]	≤ 5	–	–
O=C1OC[C@H]2CN(c3ccc4cc3OCCCOc3cccc(F)c3-c3cc5c-4n[nH]c5cn3)CCN12 [Compound 134, (8aR)-7-{16-fluoro-7,11-dioxa-19,22,23-triazapentacyclo[16.5.2.1^2,6.0^12,17.0^21,24]hexacosa-1(23),2,4,6(26),12(17),13,15,18,20,24-decaen-5-yl}-hexahydro-1H-[1,3]oxazolo[3,4-a]pyrazin-3-one]	≤ 5	–	–
O=C1OC[C@@H]2CN(c3ccc4cc3OCCCOc3cccc(F)c3-c3cc5c-4n[nH]c5cn3)CCN12 [Compound 135, (8aS)-7-{16-fluoro-7,11-dioxa-19,22,23-triazapentacyclo[16.5.2.1^2,6.0^12,17.0^21,24]hexacosa-1(23),2,4,6(26),12(17),13,15,18,20,24-decaen-5-yl}-hexahydro-1H-[1,3]oxazolo[3,4-a]pyrazin-3-one]	≤ 5	–	–
CN1C[C@@H]2CN(c3ccc4cc3OCCCOc3cccc(F)c3-c3cc5c-4n[nH]c5cn3)CCN2CC1=O [Compound 138, (9aS)-8-{16-fluoro-7,11-dioxa-19,22,23-triazapentacyclo[16.5.2.1^2,6.0^12,17.0^21,24]hexacosa-1(23),2,4,6(26),12(17),13,15,18,20,24-decaen-5-yl}-2-methyl-octahydro-1H-[1,4]diazino[1,2-a]pyrazin-3-one]	≤ 5	–	–
CN1C[C@H]2CN(c3ccc4cc3OCCCOc3cccc(F)c3-c3cc5c-4n[nH]c5cn3)CCN2CC1=O [Compound 137, (9aR)-8-{16-fluoro-7,11-dioxa-19,22,23-triazapentacyclo[16.5.2.1^2,6.0^12,17.0^21,24]hexacosa-1(23),2,4,6(26),12(17),13,15,18,20,24-decaen-5-yl}-2-methyl-octahydro-1H-[1,4]diazino[1,2-a]pyrazin-3-one]	≤ 5	–	–
